Reference: ChEMBL document CHEMBL3751826, “Sulfamide derivatives with selective carbonic anhydrase VII inhibitory action” (Bioorg Med Chem, 2016)

Assays:
[1] = molecular target: Carbonic anhydrase 7 (Homo sapiens, UniProt P43166)
Description: Inhibition of recombinant human carbonic anhydrase 7 preincubated for 15 mins by stopped-flow CO2 hydration assay

[2] = molecular target: Carbonic anhydrase 12 (Homo sapiens, UniProt O43570)
Description: Inhibition of recombinant human carbonic anhydrase 12 preincubated for 15 mins by stopped-flow CO2 hydration assay

[3] = molecular target: Carbonic anhydrase 2 (Homo sapiens, UniProt P00918)
Description: Inhibition of recombinant human carbonic anhydrase 2 preincubated for 15 mins by stopped-flow CO2 hydration assay

[4] = molecular target: Carbonic anhydrase 9 (Homo sapiens, UniProt Q16790)
Description: Inhibition of recombinant human carbonic anhydrase 9 preincubated for 15 mins by stopped-flow CO2 hydration assay

[5] = molecular target: Carbonic anhydrase 1 (Homo sapiens, UniProt P00915)
Description: Inhibition of recombinant human carbonic anhydrase 1 preincubated for 15 mins by stopped-flow CO2 hydration assay

[6] = molecular target: Carbonic anhydrase 14 (Homo sapiens, UniProt Q9ULX7)
Sequence of Carbonic anhydrase 14 (Q9ULX7 whole entry): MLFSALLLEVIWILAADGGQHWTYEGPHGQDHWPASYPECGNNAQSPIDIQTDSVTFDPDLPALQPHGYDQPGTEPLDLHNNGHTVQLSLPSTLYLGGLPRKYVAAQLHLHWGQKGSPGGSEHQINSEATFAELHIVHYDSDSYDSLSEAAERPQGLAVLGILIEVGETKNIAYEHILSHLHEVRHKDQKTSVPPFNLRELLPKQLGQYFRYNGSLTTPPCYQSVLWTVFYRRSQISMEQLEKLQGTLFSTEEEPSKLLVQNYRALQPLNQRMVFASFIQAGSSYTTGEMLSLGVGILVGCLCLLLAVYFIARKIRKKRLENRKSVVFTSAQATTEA
Description: Inhibition of recombinant human carbonic anhydrase 14 preincubated for 15 mins by stopped-flow CO2 hydration assay

Sequence of Carbonic anhydrase 7 (P43166 whole entry): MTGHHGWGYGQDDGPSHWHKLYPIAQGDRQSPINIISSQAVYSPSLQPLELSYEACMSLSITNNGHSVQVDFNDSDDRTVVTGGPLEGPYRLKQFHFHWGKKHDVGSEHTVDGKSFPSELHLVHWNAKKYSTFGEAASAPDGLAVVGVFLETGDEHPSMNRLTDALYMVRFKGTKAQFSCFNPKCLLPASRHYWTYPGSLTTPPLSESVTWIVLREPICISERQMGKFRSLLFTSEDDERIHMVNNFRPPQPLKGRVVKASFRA
Sequence of Carbonic anhydrase 1 (P00915 whole entry): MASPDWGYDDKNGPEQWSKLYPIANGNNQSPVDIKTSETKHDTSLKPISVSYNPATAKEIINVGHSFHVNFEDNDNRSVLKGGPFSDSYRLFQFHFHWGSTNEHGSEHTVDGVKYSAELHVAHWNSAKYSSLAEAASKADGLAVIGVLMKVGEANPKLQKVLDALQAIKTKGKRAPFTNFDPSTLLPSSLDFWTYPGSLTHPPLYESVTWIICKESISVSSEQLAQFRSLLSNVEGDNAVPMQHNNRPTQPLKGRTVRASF
Sequence of Carbonic anhydrase 12 (O43570 whole entry): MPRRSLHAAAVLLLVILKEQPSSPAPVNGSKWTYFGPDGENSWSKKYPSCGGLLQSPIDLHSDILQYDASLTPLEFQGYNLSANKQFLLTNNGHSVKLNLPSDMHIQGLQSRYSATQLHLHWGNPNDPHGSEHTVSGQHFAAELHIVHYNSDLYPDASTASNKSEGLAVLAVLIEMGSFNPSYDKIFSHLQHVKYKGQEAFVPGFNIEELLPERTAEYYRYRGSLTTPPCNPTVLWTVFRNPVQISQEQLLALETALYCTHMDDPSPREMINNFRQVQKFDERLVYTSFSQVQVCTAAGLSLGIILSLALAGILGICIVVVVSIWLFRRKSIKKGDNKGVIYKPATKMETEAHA

Compound	Ki [1] [µM]	Ki [2] [µM]	Ki [3] [µM]	Ki [4] [µM]	Ki [5] [µM]	Ki [6] [µM]
COC(=O)[C@H](Cc1ccccc1)NS(=O)(=O)NCc1ccc(F)cc1	0.00028	0.00066	> 10	0.0281	> 10	0.0065
COC(=O)CCNS(=O)(=O)NCCc1ccccc1	0.0022	0.0642	> 10	0.0265	> 10	0.0073
COC(=O)CCNS(=O)(=O)NCC(C)C	0.00027	0.0047	> 10	0.0318	> 10	0.0063
CCCCCCNS(=O)(=O)NCCC(=O)OC	0.0003	0.005	7.68	0.0967	> 10	0.0061
COC(=O)[C@@H](NS(=O)(=O)NCC(C)C)C(C)C	0.00039	0.0337	> 10	0.191	> 10	0.0078
O=S(=O)([O-])NC1CCCCC1.[Na+] [SODIUM CYCLAMATE]	0.00024	0.0038	> 10	0.0813	> 10	0.0066

More lines, now with the values ahead:

Ki [1] [µM]	Ki [2] [µM]	Ki [3] [µM]	Ki [4] [µM]	Ki [5] [µM]	Ki [6] [µM]	Compound
0.00037	0.0068	8.53	0.225	> 10	0.0077	COC(=O)[C@H](Cc1ccccc1)NS(=O)(=O)NCC(C)C
0.00024	0.00074	> 10	0.0257	> 10	0.0074	COC(=O)[C@@H](NS(=O)(=O)NCc1ccc(F)cc1)C(C)C
0.00045	0.0744	8.88	0.0293	> 10	0.0227	COC(=O)CCNS(=O)(=O)NCc1ccc(F)cc1
0.00031	0.0052	> 10	0.117	> 10	0.0075	COC(=O)CCNS(=O)(=O)NC(C)c1ccccc1 (stereo unspecified)
0.00043	0.0607	4.96	0.0305	> 10	0.008	COC(=O)CCNS(=O)(=O)NC12CC3CC(CC(C3)C1)C2
